In patent US11180505B2, “Crystal form of PARP-1 inhibitor and preparation method therefor” (Jiangsu Hengrui Medicine Co., Ltd., priority 2017, dated 2021):
Like-named read-outs stand apart in the source and are kept apart here.

Assays:
[1] = accelerated stability test of the crystal form (XRD comparison); format: physicochemical; conditions: 40° C., relative humidity of 75%, 6 months, XRD compared with 0 month
Procedure: The sample of Example 1 was subjected to an accelerated stability test (40° C., relative humidity of 75%) for 6 months and then sent to XRD for testing, and compared with the original data to confirm whether the crystal form changed.
Among them, the XRPD pattern of crystal form A of the compound of formula I after 6 months of the accelerated stability test (40° C., relative humidity of 75%) is shown in FIG. 3. The comparative XRPD pattern of crystal form A of the compound of formula I after accelerated stability test is shown in FIG. 4.

[2] = rat, in vivo; cited from earlier work
[3] = target: PARP enzyme (Homo sapiens, UniProt P09874); conditions: in vitro; cited from earlier work
[4] = test system: transplanted tumor; conditions: nude-mouse transplanted tumor model; cited from earlier work
[5] = dog, in vivo; cited from earlier work

PARP enzyme, sequence (P09874 whole entry): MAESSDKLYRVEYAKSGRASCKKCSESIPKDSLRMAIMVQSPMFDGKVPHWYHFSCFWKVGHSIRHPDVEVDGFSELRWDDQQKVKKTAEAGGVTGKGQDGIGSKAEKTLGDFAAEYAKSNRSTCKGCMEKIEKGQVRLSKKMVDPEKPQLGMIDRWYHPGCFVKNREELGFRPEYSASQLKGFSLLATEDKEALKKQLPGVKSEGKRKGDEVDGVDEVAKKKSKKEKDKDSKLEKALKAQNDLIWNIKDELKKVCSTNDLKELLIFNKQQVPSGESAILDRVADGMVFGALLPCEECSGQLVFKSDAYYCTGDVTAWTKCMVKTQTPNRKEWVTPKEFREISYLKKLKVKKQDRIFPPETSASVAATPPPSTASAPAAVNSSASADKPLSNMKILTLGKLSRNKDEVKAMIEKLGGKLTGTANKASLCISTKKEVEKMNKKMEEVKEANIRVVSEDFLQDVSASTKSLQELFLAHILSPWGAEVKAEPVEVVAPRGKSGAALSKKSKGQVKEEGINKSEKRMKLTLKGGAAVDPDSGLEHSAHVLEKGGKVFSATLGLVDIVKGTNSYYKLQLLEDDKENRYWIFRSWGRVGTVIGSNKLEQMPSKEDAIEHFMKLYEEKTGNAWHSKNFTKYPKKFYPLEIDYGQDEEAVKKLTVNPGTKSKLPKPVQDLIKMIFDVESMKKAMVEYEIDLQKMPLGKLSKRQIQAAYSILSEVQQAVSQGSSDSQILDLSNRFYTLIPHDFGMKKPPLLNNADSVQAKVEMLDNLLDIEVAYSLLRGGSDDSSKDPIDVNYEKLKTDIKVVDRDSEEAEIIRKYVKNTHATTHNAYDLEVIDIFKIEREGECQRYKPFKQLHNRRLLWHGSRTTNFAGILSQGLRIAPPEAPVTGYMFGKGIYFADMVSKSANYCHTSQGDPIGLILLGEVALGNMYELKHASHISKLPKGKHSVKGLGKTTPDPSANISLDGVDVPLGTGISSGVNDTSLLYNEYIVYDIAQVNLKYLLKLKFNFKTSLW

Row | SMILES | crystal form change after accelerated stability test [1] | safety (toxicological data) [2] | inhibition of the activity of PARP enzyme [3] | inhibition of tumor growth [4] | safety (toxicological data) [5]
1 | O=C(c1cc(Cc2n[nH]c(=O)c3ccccc23)ccc1F)N1CCn2nc(C(F)(F)F)nc2C1 [Example 1] | did not change | – | – | – | –
2 | O=C(c1cc(Cc2n[nH]c(=O)c3ccccc23)ccc1F)N1CCn2nc(C(F)(F)F)nc2C1 [formula I] | – | has a corresponding safety | inhibit the activity of PARP enzyme significantly | inhibit tumor growth significantly | has a corresponding safety
